Legend:
[1] = tested on: Daudi human Burkitt’s Lymphoma cell line; test: Study 1: Daudi xenograft human Burkitt's lymphoma subcutaneous tumor model; format: in vivo, CB17 SCID mice; settings: for GRI%: vs vehicle; for Tumor growth relative to vehicle-treated tumors (pairwise comparison): I-263a 7.5 mg/kg BIW, daratumumab 7.5 mg/kg BIW or both, data up to Day 22, p < 0.001
Protocol: (§1) Low tumor volumes can cause problems with the data analysis, so all measurements below 25 cubic mm (including 0 values) were excluded from the analysis. After this exclusion step, the tumor volume was assumed to follow an exponential growth model. More specifically, for a given animal and treatment group,
(§2) Pairwise comparisons were performed, where the mean growth rates were compared for various pairs of treatment conditions. The results were summarized using the growth rate inhibition (GRI). Suppose µT and µC are the mean tumor growth rates for the treatment and reference groups, respectively. Define
(§3) Here, µAB, µA, µB, and µControl are the mean growth rates for the combination, drug A, drug B, and control groups, respectively. As before, µv is the mean tumor growth rate for the vehicle group, which in most cases is the same as the control group. The standard error of the synergy score was calculated as the square root of the sum of squared standard errors across the four groups. The degrees of freedom were estimated using the Welch-Satterthwaite equation. A hypothesis test was performed to determine if the synergy score differed from 0. P-values were calculated by dividing the synergy score by its standard error and tested against a t-distribution (two-tailed) with the above-calculated degrees of freedom. A P value of less than 0.05 is statistically significant.
(§4) The combination results can be interpreted as follows. Statistically significant negative synergy scores indicate a synergistic combination (“Syn.”). Statistically significant positive synergy scores indicate a sub-additive combination (“Sub-add.”) when the combination performs better (i.e. has a lower growth rate) than the best performing single agent. Statistically significant positive synergy scores indicate an antagonistic combination (“Antag.”) when the combination performs worse than the best performing single agent. Scores that are not statistically significant should be considered additive (“Add.”).
(§5) Daudi is a human Burkitt’s Lymphoma cell line. A Daudi human xenograft tumor model was generated by subcutaneous inoculation with 2.0 ×x 10^6 Daudi cells (cell suspension) in 6 weeks old female CB17 SCID mice (Charles River Laboratories, 251 Ballardvale St., Wilmington, MA) in the flank. When the mean tumor volume reached approximately 120 mm^3, the animals were randomized into one vehicle control and three treatment groups (n=8/group). Mice were then dosed with 20% HPβCD or Compound I-263a and/or daratumumab over a 21-day period. Tumor growth and body weight were measured twice per week during the treatment and post-treatment periods, and mice were humanely euthanized once they had reached their humane endpoint.
A 1.725 mg/mL and a 0.862 mg/mL stock solution of I-263a was formulated weekly in 20% HPβCD and administered intravenously (IV) based on an average body weight using a 0.2 mL dosing volume. Final doses I-263a received were 7.5 mg/kg. I-263a was administered on a BIW schedule for 3 weeks (Days 1, 4, 8, 11, 15, and 18). Daratumumab (anti-CD38 antibody) (Myoderm Medical Supplies, 48 E Main St., Norristown, PA 19401) was purchased at the beginning of the study and stored at 4° C. according to manufacturer’s instructions. Final dose daratumumab received was 7.5 mg/kg based on average body weight. Daratumumab was administered intraperitoneally (IP) using a 0.1 mL dosing volume, on a BIW schedule for 3 weeks (Days, 1, 4, 8, 11, 15, and 18).
Tumors were measured twice weekly using Vernier calipers. Tumor volumes were calculated using standard equation: V = W^2 x L/2, where V = volume, W = width, and L = length for the tumor. When mean tumor volumes reached approximately 120 mm^3, mice were randomized into control and treatment groups. Mice were randomized into 4 groups (n=8/group) and dosed with vehicle (20% HPβCD), I-263a, daratumumab, or the combination of I-263a plus daratumumab at doses and schedules described above. […]

[2] = tested on: Daudi human Burkitt’s Lymphoma cell line; test: Study 7: Daudi xenograft human Burkitt's lymphoma subcutaneous tumor model (daratumumab or AB79); format: in vivo, CB17 SCID mice; settings: for GRI%: vs vehicle; for Tumor growth relative to vehicle-treated tumors (pairwise comparison): each agent 7.5 mg/kg BIW, I-263a p = 0.105, daratumumab p < 0.001, AB79 p = 0.002, both combinations p < 0.001, data up to Day 22
Protocol: as §1, §2, §3, §4
as §5, with “2.0 ×” for “2.0 ×x”, “in 7” for “in 6”, “approximately 110 mm3,” for “approximately 120 mm^3,”, “and six” for “and three”, “daratumumab or AB79” for “daratumumab”
A 0.75 mg/mL stock solution of I-263a was formulated weekly in 20% HPβCD and administered intravenously (IV) based on an average body weight using a 0.2 mL dosing volume. Final doses of I-263a received were 7.5 mg/kg. I-263a was administered on a BIW schedule for 3 weeks (Days 1, 4, 8, 11, 15, and 18). Daratumumab (anti-CD38 antibody) (Myoderm Medical Supplies, 48 E Main St., Norristown, PA 19401) was purchased at the beginning of the study and stored at 4° C. according to manufacturer’s instructions. Final dose of daratumumab received was 7.5 mg/kg based on average body weight. Daratumumab was administered intraperitoneally (IP) using a 0.1 mL dosing volume, on a BIW schedule for 3 weeks (Days, 1, 4, 8, 11, 15, and 18). AB79 was formulated on the day of dosing in 0.9% saline and administered intraperitoneally (IP) using a 0.1 mL dosing volume, on a BIW schedule for 3 weeks (Days, 1, 4, 8, 11, 15, and 18). Final dose of AB79 was 7.5 mg/kg based on average body weight.
Tumors were measured twice weekly using Vernier calipers. Tumor volumes were calculated using standard equation: V = W2 × L/2, where V = volume, W = width, and L = length for the tumor. […]

Row | Molecule | Tumor Volume on Day 22 (±SEM) ([1]; I-263a 7.5 mg/kg BIW IV) | GRI% ([1]; I-263a 7.5 mg/kg BIW IV) [%] | Tumor growth relative to vehicle-treated tumors (pairwise comparison) [1] | Tumor Volume on Day 22 (±SEM) ([2]; I-263a 7.5 mg/kg BIW IV) | GRI% ([2]; I-263a 7.5 mg/kg BIW IV) [%] | Tumor growth relative to vehicle-treated tumors (pairwise comparison) [2] | Tumor Volume on Day 22 (±SEM) ([1]; Daratumumab 7.5 mg/kg BIW IP) | GRI% ([1]; Daratumumab 7.5 mg/kg BIW IP) [%] | Tumor Volume on Day 22 (±SEM) ([2]; Daratumumab 7.5 mg/kg BIW IP) | GRI% ([2]; Daratumumab 7.5 mg/kg BIW IP) [%]
1 | Cc1sc(C(=O)c2cncnc2N[C@@H]2C[C@H](COS(N)(=O)=O)[C@@H](O)C2)cc1[C@@H]1NCCc2ccc(Cl)cc21 [Compound I-263a, [(1R,2S,4R)-4-{[5-({4-[(1R)-7-chloro-1,2,3,4-tetrahydroisoquinolin-1-yl]-5-methyl-2-thienyl}carbonyl)pyrimidin-4-yl]amino}-2-hydroxycyclopentyl]methyl sulfamate] | 1509.4 ± 109.1 | 15 | tumor growth inhibition | 1305 (±83.6) | 13 | tumor growth inhibition |  |  |  | 
2 | Daratumumab: immunoglobulin G1 kappa (IgG1κ) human monoclonal antibody against CD38 antigen |  |  | tumor growth inhibition |  |  | tumor growth inhibition | 1043.9 ± 159.1 | 29 | 1004.9 (±97.1) | 31
